Data on 16 compounds can be found in PubChem BioAssay AID248 (DTP/NCI, 2004).

Inconclusive results and toxic doses are left out.

For the assay, the system named is L1210 leukemia ip in BDF1 mice, survival T/C. Put plainly: NCI In Vivo Anticancer Drug Screen. Data for tumor model L1210 Leukemia (intraperitoneal) in B6D2F1 (BDF1) mice. The following applies: endpoint: mean survival time, higher = longer survival. The gist of the method: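 In this screen, tumor-bearing mice given compound are compared to those given vehicle, and their survival values are reported as a treated-to-control quotient.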

Where [1] appears, read: dose: 100.0 mg/kg/injection, schedule: Q04DX003 (ip), vehicle: saline with Tween-80.
Setting [2] is: dose: 200.0 mg/kg/injection, schedule: Q04DX003 (ip), vehicle: saline with Tween-80.
Where [3] appears, read: dose: 400.0 mg/kg/injection, schedule: Q04DX003 (ip), vehicle: saline with Tween-80.
Setting [4] is: dose: 100.0 mg/kg/injection, schedule: Q04DX002 (ip), vehicle: Klucel (hydroxypropylcellulose) (HPC).
[5] abbreviates: dose: 200.0 mg/kg/injection, schedule: Q04DX002 (ip), vehicle: Klucel (hydroxypropylcellulose) (HPC).
Where [6] appears, read: dose: 100.0 mg/kg/injection, schedule: Q01DX009 (ip), vehicle: Klucel (hydroxypropylcellulose) (HPC).

For `CC(=O)Nc1c(Cl)c(Cl)c2c(c1Cl)Cc1cc(F)ccc1-2`, the T/C (dose: 62.5 mg/kg/injection, schedule: Q01DX Z (ip), vehicle: saline) was 97 % of control; the T/C under setting [1] is 101 % of control; the T/C (dose: 125.0 mg/kg/injection, schedule: Q01DX Z (ip), vehicle: saline) was 95 % of control; the T/C under setting [2] is 93 % of control; the T/C (dose: 250.0 mg/kg/injection, schedule: Q01DX Z (ip), vehicle: saline) was 101 % of control; the T/C under setting [3] was 95 % of control. The T/C is 95 % of control (dose: 500.0 mg/kg/injection, schedule: Q01DX Z (ip), vehicle: saline); 96 % of control (dose: 650.0 mg/kg/injection, schedule: Q01DX Z (ip), vehicle: saline); 102 % of control (dose: 800.0 mg/kg/injection, schedule: Q01DX Z (ip), vehicle: saline).
As for `NNC(=O)CNc1ccc(Br)cc1F`, the T/C is 104 % of control under setting [4] and 115 % of control under setting [5].
Consider `CCCCCCC(/C=N/N=C(N)N)=N\N=C(N)N`, for which the T/C is, setting by setting: (dose: 15.0 mg/kg/injection, schedule: Q01DX Z (ip), vehicle: carboxymethylcellulose (CMC)) 100 % of control; (dose: 15.0 mg/kg/injection, schedule: Q01DX Z (oral), vehicle: carboxymethylcellulose (CMC)) 101 % of control; (dose: 30.0 mg/kg/injection, schedule: Q01DX Z (ip), vehicle: carboxymethylcellulose (CMC)) 95 % of control; (dose: 30.0 mg/kg/injection, schedule: Q01DX Z (oral), vehicle: carboxymethylcellulose (CMC)) 93 % of control; (dose: 60.0 mg/kg/injection, schedule: Q01DX Z (oral), vehicle: carboxymethylcellulose (CMC)) 109 % of control.
For `OC(Cc1[nH]c2ccccc2c1C(O)(C(F)(F)F)C(F)(F)F)(C(F)(F)F)C(F)(F)F`, the T/C (dose: 100.0 mg/kg/injection, schedule: Q04DX003 (ip), vehicle: other) is 109 % of control; the T/C (dose: 200.0 mg/kg/injection, schedule: Q04DX003 (ip), vehicle: other) is 109 % of control; the T/C (dose: 400.0 mg/kg/injection, schedule: Q04DX003 (ip), vehicle: other) is 98 % of control.
In the case of `OC1C2CCN(CC2)C1C(c1ccccc1)c1ccc(F)cc1` (stereo not drawn), the T/C under setting [4] was 91 % of control and the T/C under setting [5] was 87 % of control.
In the case of `CC(=O)SCCCCl`, the T/C (dose: 100.0 mg/kg/injection, schedule: Q04DX003 (ip), vehicle: saline) was 105 % of control; the T/C (dose: 200.0 mg/kg/injection, schedule: Q04DX003 (ip), vehicle: saline) is 101 % of control; the T/C (dose: 400.0 mg/kg/injection, schedule: Q04DX003 (ip), vehicle: saline) is 102 % of control.
As to `O=C1OC2CCCCC2/C1=C/OS(=O)(=O)C(F)(F)F` (stereo not drawn), the T/C is 105 % of control (dose: 12.5 mg/kg/injection, schedule: Q01DX009 (ip), vehicle: DMSO); 103 % of control (dose: 25.0 mg/kg/injection, schedule: Q01DX009 (ip), vehicle: DMSO); 110 % of control (dose: 50.0 mg/kg/injection, schedule: Q01DX009 (ip), vehicle: DMSO); 110 % of control (dose: 100.0 mg/kg/injection, schedule: Q01DX009 (ip), vehicle: DMSO); 117 % of control (dose: 200.0 mg/kg/injection, schedule: Q01DX009 (ip), vehicle: DMSO).
With `CCCCCCCCC/C(=N\N=C(N)N)c1ccccc1`, the T/C was 94 % of control (dose: 15.0 mg/kg/injection, schedule: Q01DX Z (ip), vehicle: methylcellulose (MC)); 96 % of control (dose: 30.0 mg/kg/injection, schedule: Q01DX Z (ip), vehicle: methylcellulose (MC)); 89 % of control (dose: 50.0 mg/kg/injection, schedule: Q01DX Z (oral), vehicle: methylcellulose (MC)); 90 % of control (dose: 60.0 mg/kg/injection, schedule: Q01DX Z (ip), vehicle: methylcellulose (MC)); 102 % of control (dose: 60.0 mg/kg/injection, schedule: Q01DX Z (oral), vehicle: methylcellulose (MC)); 108 % of control (dose: 120.0 mg/kg/injection, schedule: Q01DX Z (ip), vehicle: methylcellulose (MC)). Moreover, the T/C (dose: 120.0 mg/kg/injection, schedule: Q01DX Z (oral), vehicle: methylcellulose (MC)) was 98 % of control; the T/C (dose: 240.0 mg/kg/injection, schedule: Q01DX Z (ip), vehicle: methylcellulose (MC)) was 96 % of control; the T/C (dose: 400.0 mg/kg/injection, schedule: Q01DX Z (oral), vehicle: methylcellulose (MC)) was 89 % of control; the T/C (dose: 480.0 mg/kg/injection, schedule: Q01DX Z (ip), vehicle: methylcellulose (MC)) is 113 % of control; the T/C (dose: 1000.0 mg/kg/injection, schedule: Q01DX Z (ip), vehicle: methylcellulose (MC)) is 87 % of control; the T/C (dose: 1500.0 mg/kg/injection, schedule: Q01DX Z (ip), vehicle: methylcellulose (MC)) was 100 % of control.
With `c1ccc([P+](CCCCCCCCCC[P+](c2ccccc2)(c2ccccc2)c2ccccc2)(c2ccccc2)c2ccccc2)cc1`, the T/C is, setting by setting: (dose: 5.0 mg/kg/injection, schedule: Q01DX001 (ip), vehicle: saline) 105 % of control; (dose: 10.0 mg/kg/injection, schedule: Q01DX001 (ip), vehicle: saline) 102 % of control; (dose: 20.0 mg/kg/injection, schedule: Q01DX001 (ip), vehicle: saline) 110 % of control.
Turning to `Cc1c(C)c2c(C(=O)O)c3ccccc3nc2c2ccccc12`, the T/C is 96 % of control (dose: 50.0 mg/kg/injection, schedule: Q01DX001 (ip), vehicle: alcohol); 102 % of control (dose: 100.0 mg/kg/injection, schedule: Q01DX001 (ip), vehicle: alcohol); 92 % of control (dose: 200.0 mg/kg/injection, schedule: Q01DX001 (ip), vehicle: alcohol); 105 % of control (dose: 400.0 mg/kg/injection, schedule: Q01DX001 (ip), vehicle: alcohol).
In the case of `O=C(Nc1ccccc1C(F)(F)F)Oc1ccc(Cl)cc1Cl`, the T/C by setting is: (dose: 100.0 mg/kg/injection, schedule: Q01DX009 (ip), vehicle: saline with Tween-80) 103 % of control; under setting [1], 94 % of control; (dose: 200.0 mg/kg/injection, schedule: Q01DX009 (ip), vehicle: saline with Tween-80) 99 % of control; under setting [2], 102 % of control; under setting [3], 86 % of control.
In the case of `OC(c1ccccc1)C1C2C=CC(C2)C1C(O)c1ccccc1` (stereo not drawn), the T/C by setting is: under setting [6], 101 % of control; (dose: 200.0 mg/kg/injection, schedule: Q01DX009 (ip), vehicle: Klucel (hydroxypropylcellulose) (HPC)) 86 % of control; (dose: 300.0 mg/kg/injection, schedule: Q01DX009 (ip), vehicle: Klucel (hydroxypropylcellulose) (HPC)) 95 % of control.
`O=C1c2cccc([N+](=O)[O-])c2C(=O)C1c1ccccn1` (stereo not drawn): the T/C reads like this: under setting [1], 101 % of control; under setting [2], 90 % of control; under setting [3], 101 % of control.
For the compound `O=C(O)c1ccc(Nc2c3ccccc3nc3ccccc23)cc1`, the T/C was 177 % of control (dose: 50.0 mg/kg/injection, schedule: Q01DX009 (ip), vehicle: Klucel (hydroxypropylcellulose) (HPC)) and 243 % of control under setting [6].
As for `CC(C)(C)c1nc2cc(Cl)c(Cl)cc2[nH]1`, the T/C is 102 % of control (dose: 75.0 mg/kg/injection, schedule: Q01DX001 (ip), vehicle: other); 96 % of control (dose: 75.0 mg/kg/injection, schedule: Q01DX009 (ip), vehicle: saline with Tween-80); 103 % of control (dose: 75.0 mg/kg/injection, schedule: Q04DX003 (ip), vehicle: saline with Tween-80); 96 % of control (dose: 150.0 mg/kg/injection, schedule: Q01DX001 (ip), vehicle: other); 90 % of control (dose: 150.0 mg/kg/injection, schedule: Q01DX009 (ip), vehicle: saline with Tween-80); 110 % of control (dose: 150.0 mg/kg/injection, schedule: Q04DX003 (ip), vehicle: saline with Tween-80). Moreover, the T/C (dose: 300.0 mg/kg/injection, schedule: Q01DX001 (ip), vehicle: other) is 109 % of control; the T/C (dose: 300.0 mg/kg/injection, schedule: Q01DX009 (ip), vehicle: saline with Tween-80) was 103 % of control; the T/C (dose: 300.0 mg/kg/injection, schedule: Q04DX003 (ip), vehicle: saline with Tween-80) is 107 % of control.
With `CCCS(=O)(=O)N1CCCC(C)C1` (stereo not drawn), the T/C is, setting by setting: under setting [4], 94 % of control; under setting [5], 97 % of control; (dose: 400.0 mg/kg/injection, schedule: Q04DX002 (ip), vehicle: Klucel (hydroxypropylcellulose) (HPC)) 97 % of control.
